Test results as given in US7608761B2, “Method for disease control in MON89788 soybean” (Monsanto Technology LLC, priority 2005, dated 2009).

Columns and labels:
[1] = tested on: Frogeye Leafspot (Cercospora sojina); experiment: Greenhouse disease severity on MON89788, Frogeye Leafspot; assay type: in vivo; set-up: key to Frogeye disease severity (DS): 1 = no symptoms; 2 = ≤10% leaf infected … 9 = >85% leaf infected; settings: for Frogeye disease severity (DS): 1-9 scale
Protocol: (§1) Soybean plants comprising event MON89788 and grown under standard conditions in a greenhouse were treated with 1×, 2× or 3× concentrations of glyphosate and inoculated with the plant pathogens 1 DBI, 1 DAI and 4 DAI. Disease symptoms for each disease was rated on a 1-9 scale as an approximate measure of disease severity (DS)occurring on the leaves, 1 is no symptoms, 2 is up to 10% of the leaf infected, 3 is 11-20% of the leaf infected, 4 is 21-35%, 5 is 36-50%, 7 is 66-75%, 8 is 76-85%, 9 is greater than 85% of the leaf is infected and showing disease symptoms.

Cercospora leaf blight = experiment: Greenhouse disease severity on MON89788, Cercospora leaf blight; assay type: in vivo, Cercospora carotae; set-up: key to Cercospora Leaf Blight disease severity (DS): 1 = no symptoms; 2 = ≤10% leaf infected … 9 = >85% leaf infected; settings: 1-9 scale
Protocol: as §1

[2] = tested on: Cercospora leaf blight (Cercospora carotae); experiment: as above; assay type: in vivo; set-up: key to Cercospora Leaf Blight disease severity (DS): 1 = no symptoms; 2 = ≤10% leaf infected … 9 = >85% leaf infected; settings: 1×, 2× or 3×; 1 DBI, 1 DAI and 4 DAI
Protocol: as §1

powdery mildew disease = experiment: Powdery mildew disease control on MON89788; assay type: in vivo, Microsphaera diffusa; settings: for DS Mean (powdery mildew): treated 1 DBI, no spray control 4.65
Text: The mean disease severity score for the no spray control was 4.65, the glyphosate treatments provided a high level of disease control at all treatment rates.

[3] = tested on: Asian Soybean Rust (ASR) (Loxley Al isolate); experiment: Growth chamber detached soybean leaf assay, ASR on MON89788; assay type: in vivo, Phakopsora sp.
Protocol: Growth chamber and greenhouse assays were conducted to determine if glyphosate treatments (Roundup® WeatherMax) decreased the disease severity of Asian Soybean Rust (ASR) on MON89788. Growth chamber assays were conducted following a detached leaf assay method. Plants of MON89788 were grown in the greenhouse and leaves from the 3rd trifoliate were detached and placed in 6-well trays with water. Five treatments were evaluated: (1) an untreated check inoculated with spores of ASR (Loxley Al isolate); (2) leaf tissue of MON89788 inoculated with ASR spores and treated with glyphosate post-sporulation (13 days after inoculation with spores (DAI)); (3) MON89788 treated with 1× rate (0.75 lb/acre) of Roundup® WeatherMax 5 DAI; (4) MON89788 treated with […] of Roundup® WeatherMax 5 DAI; and (5) MON89788 treated with 3× rate of Roundup® WeatherMax 5 DAI.
The leaves were rated for disease severity 12 DAI, 20 DAI, and 25 DAI.
The analysis of the disease progression is illustrated in FIG. 2 and measured as the Area Under Disease Progress Curve (AUDPC) for the same material summarized in FIG. 1. […] The disease progression was reduced for all glyphosate treatments at 5DAI and the 2× rate post-sporulation.

Asian Soybean Rust (ASR) = experiment: Greenhouse assay on intact MON89788 plants, ASR; assay type: in vivo, Phakopsora sp.
Protocol: Greenhouse assays on intact MON89788 plants were treated with 1×, 2×, and 3× rates of Roundup® WeatherMax at 6 DBI (days before inoculation) and 9 DAI. Results for this experiment were collected 17 DAI.

[4] = tested on: Aerial blight (Rhizoctonia solani); experiment: Greenhouse disease severity on MON89788, Aerial blight; assay type: in vivo; settings: for Aerial Blight disease severity (DS): 1-9 scale
Protocol: as §1

[5] = 1×, 2× or 3×, 1 DBI, 1 DAI and 4 DAI

With O=C(O)CNCP(=O)(O)O [glyphosate, N-phosphonomethylglycine] the “Frogeye disease severity (DS)” value ([1]; 1 day post inoculation, 1X) was 3.4, the “Frogeye disease severity (DS)” value ([1]; 1 day post inoculation, 2X) was 3.3 and the “Frogeye disease severity (DS)” value ([1]; 1 day post inoculation, 3X) was 7.2. The “Frogeye disease severity (DS)” value ([1]; 1 day pre inoculation, 1X) was 2.7, the “Frogeye disease severity (DS)” value ([1]; 1 day pre inoculation, 2X) was 3.7 and the “Frogeye disease severity (DS)” value ([1]; 1 day pre inoculation, 3X) was 3.8. The “Frogeye disease severity (DS)” value ([1]; 4 days post inoculation, 1X) was 3.7, the “Frogeye disease severity (DS)” value ([1]; 4 days post inoculation, 2X) was 5.3 and the “Frogeye disease severity (DS)” value ([1]; 4 days post inoculation, 3X) was 2.3. The “disease severity control, Frogeye Leafspot” value [1, 5] was “preventative and curative disease severity control”, the “Cercospora Leaf Blight disease severity (DS)” value (Cercospora leaf blight; 1 day post inoculation, 1X) was 2.8 and the “Cercospora Leaf Blight disease severity (DS)” value (Cercospora leaf blight; 1 day post inoculation, 2X) was 6.4. For the same compound, the “Cercospora Leaf Blight disease severity (DS)” value (Cercospora leaf blight; 1 day post inoculation, 3X) was 6.5, the “Cercospora Leaf Blight disease severity (DS)” value (Cercospora leaf blight; 1 day pre inoculation, 1X) was 2.8 and the “Cercospora Leaf Blight disease severity (DS)” value (Cercospora leaf blight; 1 day pre inoculation, 2X) was 6.1. The “Cercospora Leaf Blight disease severity (DS)” value (Cercospora leaf blight; 1 day pre inoculation, 3X) was 3.8, the “Cercospora Leaf Blight disease severity (DS)” value (Cercospora leaf blight; 4 days post inoculation, 1X) was 3.3 and the “Cercospora Leaf Blight disease severity (DS)” value (Cercospora leaf blight; 4 days post inoculation, 2X) was 3.2. For the same compound, the “Cercospora Leaf Blight disease severity (DS)” value (Cercospora leaf blight; 4 days post inoculation, 3X) was 4.9, the “disease severity control, Cercospora leaf blight” value [2] was “preventative and curative disease severity control” and the “DS Mean (powdery mildew)” value (powdery mildew disease; 0.75 lb ae/a (1X)) was 1. For the same compound, the “DS Mean (powdery mildew)” value (powdery mildew disease; 1.5 lb ae/a (2X)) was 1, the “DS Mean (powdery mildew)” value (powdery mildew disease; 2.25 lb ae/a (3X)) was 1 and the “control of powdery mildew disease” value (powdery mildew disease; treated 1 DBI with any of the three rates) was “high level of control”. For the same compound, the “Area Under Disease Progress Curve (AUDPC)” value ([3]; 2× rate) was “lower compared to other treatments”, the “disease progression (AUDPC)” value ([3]; 2× rate post-sporulation) was “reduced” and the “Area Under Disease Progress Curve (AUDPC)” value ([3]; 3× rate) was “lower compared to other treatments”. For the same compound, the “disease progression (AUDPC)” value ([3]; all glyphosate treatments at 5DAI) was “reduced”, the ASR sporulation ([3]; post-disease development/sporulation treatments) was “appeared to arrest sporulation” and the “levels of ASR infection and disease” value (Asian Soybean Rust (ASR); 1×, 2×, 3× at 6 DBI or 9 DAI, all except 1× at 6 DBI, collected 17 DAI) was “lower levels of ASR infection and disease”. The “rate of ASR disease development” value (Asian Soybean Rust (ASR); pre-inoculation treatments) was “appeared to slow the rate of disease development”, the “levels of ASBR” value (Asian Soybean Rust (ASR); split treatments (1× pre+1× post-inoculation)) was “reduced levels of ASBR similar to single 2× and 3× pre- or post-inoculation” and the “Aerial Blight disease severity (DS)” value ([4]; 1 day post inoculation, 1X) was 5.0. For the same compound, the “Aerial Blight disease severity (DS)” value ([4]; 1 day post inoculation, 2X) was 6.4, the “Aerial Blight disease severity (DS)” value ([4]; 1 day post inoculation, 3X) was 6.9 and the “Aerial Blight disease severity (DS)” value ([4]; 1 day pre inoculation, 1X) was 7.1. The “Aerial Blight disease severity (DS)” value ([4]; 1 day pre inoculation, 3X) was 8.0, the “Aerial Blight disease severity (DS)” value ([4]; 4 days post inoculation, 1X) was 7.6 and the “Aerial Blight disease severity (DS)” value ([4]; 4 days post inoculation, 2X) was 4.4. For the same compound, the “Aerial Blight disease severity (DS)” value ([4]; 4 days post inoculation, 3X) was 7.9 and the “disease severity control, Aerial blight” value [4, 5] was “preventative and curative disease severity control”.
